Measurements from patent US20160082133A1, “CHEMICAL EXCHANGE SATURATION TRANSFER (CEST) BASED MRI USING REPORTER GENES AND SUBSTRATES AND METHODS THEREOF” (The Johns Hopkins University, priority 2013, published 2016).

Legend:
[1] = In vitro CEST-MRI of thymidine analogues at 11.7 T; type: physicochemical; conditions: pH 7.4, 37° C.
Description: All compounds were dissolved at a concentration of 20 mM in phosphate-buffered saline (PBS) (pH=7.4) and placed in microcapillaries, as described previously.^17 CESTMRI experiments were performed on a vertical 11.7 T scanner (Bruker Avance system) at 37° C. A modified RARE sequence (TR/TE=10 000/9.4 ms; RARE factor=16; 1 mm slice thickness; FOV=11×11 mm^2; matrix size=64×32; resolution=0.17×0.34 mm^2; and NA=2) including a magnetization transfer (MT) module ([…]) was used to acquire CEST-weighted images from −8 to +8 ppm with increments of 0.2 ppm around the water resonance, which was assigned to be at 0 ppm. Pixel-based B0 correction was used as described before using the same parameters as above except for TR=1500 ms and B1/tsat=21 Hz/500 ms, with a sweep range from −2 to +2 ppm (0.1 ppm steps). Data processing was performed using custom-written scripts in MATLAB (Mathworks). Mean CEST spectra were plotted from an ROI for each sample, after B0 correction. MTRasym=100×(S^−Aω−S^AωA/^‘−’0)/3 was computed at different offsets Aω.

[2] = Quantification of exchange rates (QUESP, Bloch equation fitting); type: physicochemical; conditions: 11.7 T, pH 7.4, 37° C.
Description: Exchange rates were quantified with the saturation power dependent CEST approach (QUESP) and Bloch equation fitting (McMahon et al., Magn. Res. Med. 2006, 55, 836). For each sample, the MTRasym was measured at the imino resonance frequency for CEST saturation fields of 43, 85, 128, 170, 213, 255, 340, and 426 Hz while the saturation pulse duration was kept constant at 4000 ms. The Bloch equations were then fit numerically to these MTRasym values using MATLAB (Mathworks), and the exchange rates (kex, s^−1) were determined from the fits. Errors (95% confidence limits) were estimated using the F statistic.

[3] = cited from earlier work
[4] = In vitro CEST imaging on a clinical 3 Tesla MRI scanner; type: physicochemical; conditions: 3.0 T, 20 mM, pH 7.4, room temperature
Description: Experiments were performed on a 3.0 Tesla Philips Achieva system (Philips Healthcare, Best, The Netherlands) using a body coil for transmit and a small animal solenoid coil for reception. CEST data were collected using a pulsed acquisition scheme (Jones, C. K. et al. Magn Reson Med 2011) with a 25 ms, 164 Hz frequency selective saturation pulse followed by a partial EPI readout (EPI factor 3). This TR interval was repeated until a 3D volume was acquired with 5 slices (slice thickness of 10 mm) across a field of view of 48×45 mm^2 (in plane resolution of 0.75 mm×0.9 mm) The acquisition per irradiation frequency consisted of TR/TE=65/5.5 ms and 4 averages. A total of 64 images were acquired which included an unsaturated volume and 63 saturated volumes with equally spaced frequency offsets between ±10 ppm (relative to the water frequency). The total acquisition time was 26 min 38 s. The experiments for B0 correction (Kim, M. et al. Magn Reson Med 2009, 61, 1441) were run the same except that 40 Hz frequency selective saturation pulse was used. Data processing was performed as described herein.

[5] = at 5 ppm for 20 nM agent (so in the source)

## C[C@H]1CN([C@H]2C[C@H](O)[C@@H](CO)O2)C(=O)NC1=O [Compound 1, (5S)-5,6-dihydrothymidine]
[1]; [5]
  MTRasym (8.5 Hz): 6%
  MTRasym (170 Hz): 18%
  MTRasym (213 Hz): 19%
[1]; at 5 ppm for 20 mM agent
  MTRasym (128 Hz): 14%
[2]
  kex of the imino proton: 0.8±0.2×10^3 s^−1
[2]; 5 ppm for 1-3, 6 ppm for dT
  kex, quantified exchange rates of imino and water protons: 0.8 ± 0.2 ×10^3 s^−1
[3]
  pKa values of the imino proton obtained from the literature: 11.6^43
[4]
  MTRasym value at 5 ppm, higher compared to dT: 40%
